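The compound was tested at five concentrations on cells cultured in 96-well plates, with a 48-hour exposure period. GI50: concentration for 50% inhibition of growth.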 The source made the active and inactive calls. No stated cut-off is given here; in the data, active = GI50 up to about 1.1 µM and inactive = higher.
What was measured:
Assay in all cases: NCI tumour cell line growth inhibition, 48 h
CAKI-1 = test system: CAKI-1
CCRF-CEM = test system: CCRF-CEM
HCT-116 = test system: HCT-116
K562 = test system: K562
KM12 = test system: KM12
LOX IMVI = test system: LOX IMVI
MOLT-4 = test system: MOLT-4
Malme-3M = test system: Malme-3M
NCI-H460 = test system: NCI-H460
NCI-H522 = test system: NCI-H522
RPMI-8226 = test system: RPMI-8226
SK-MEL-28 = test system: SK-MEL-28
SNB-19 = test system: SNB-19
TK-10 = test system: TK-10
UACC-62 = test system: UACC-62
DU-145 = test system: DU-145
MDA-MB-231 = test system: MDA-MB-231
PC-3 = test system: PC-3
MDA-N = test system: MDA-N

Row | SMILES | GI50 (CAKI-1) | GI50 (CCRF-CEM) | GI50 (HCT-116) | GI50 (K562) | GI50 (KM12) | GI50 (LOX IMVI) | GI50 (MOLT-4) | GI50 (Malme-3M) | GI50 (NCI-H460) | GI50 (NCI-H522) | GI50 (RPMI-8226) | GI50 (SK-MEL-28) | GI50 (SNB-19) | GI50 (TK-10) | GI50 (UACC-62) | GI50 (DU-145) | GI50 (MDA-MB-231) | GI50 (PC-3) | GI50 (MDA-N)
1 | COc1cc(C(C)c2cc3c(cc2OCCN)OCO3)cc(OC)c1OC (stereo unspecified) | > 100 µM (inactive) | 35.2 µM (inactive) | > 100 µM (inactive) | > 100 µM (inactive) | 28.4 µM (inactive) | > 100 µM (inactive) | 10.9 µM (inactive) | > 100 µM (inactive) | > 100 µM (inactive) | 78.5 µM (inactive) | 37.3 µM (inactive) | 28.2 µM (inactive) | 54.8 µM (inactive) | 73.5 µM (inactive) | 35.5 µM (inactive) | – | – | – | –
2 | CC(SC(=S)Nc1cccc(F)c1)C(=O)O (stereo unspecified) | 45.8 µM (inactive) | 21.2 µM (inactive) | 19.2 µM (inactive) | 15.6 µM (inactive) | > 10 µM (inactive) | 16.1 µM (inactive) | 17.5 µM (inactive) | – | 26.2 µM (inactive) | 13.4 µM (inactive) | 15.6 µM (inactive) | 16.1 µM (inactive) | 29.4 µM (inactive) | 29.2 µM (inactive) | 19 µM (inactive) | – | – | – | –
3 | Cc1c2c(ccc3ccccc32)c[n+]2ccccc12 | > 100 µM (inactive) | 11 µM (inactive) | 21.8 µM (inactive) | 11.6 µM (inactive) | 1.09 µM (active) | – | 6.59 µM (inactive) | 2.25 µM (inactive) | > 10 µM (inactive) | 4.79 µM (inactive) | 32.1 µM (inactive) | 15.7 µM (inactive) | 2.07 µM (inactive) | > 100 µM (inactive) | – | – | – | – | –
4 | COC(=O)C1=C(C(=O)Nc2cccnc2Cl)N(c2ccc(OC)cc2[N+](=O)[O-])C(c2ccc(C)cc2)=CC1c1ccc(OC)cc1OC (stereo unspecified) | 36.9 µM (inactive) | 4.53 µM (inactive) | 9.98 µM (inactive) | 4.67 µM (inactive) | 2.92 µM (inactive) | 2.82 µM (inactive) | 7.94 µM (inactive) | 12.6 µM (inactive) | 23.9 µM (inactive) | 2.59 µM (inactive) | 2.37 µM (inactive) | 59.6 µM (inactive) | 32.1 µM (inactive) | 20.7 µM (inactive) | 24.3 µM (inactive) | 23 µM (inactive) | 17.9 µM (inactive) | 27.5 µM (inactive) | –
5 | N=C(N)Cn1cnc2ccccc21 | – | > 100 µM (inactive) | – | > 100 µM (inactive) | > 100 µM (inactive) | > 100 µM (inactive) | > 100 µM (inactive) | > 100 µM (inactive) | > 100 µM (inactive) | > 100 µM (inactive) | > 100 µM (inactive) | > 100 µM (inactive) | > 100 µM (inactive) | > 100 µM (inactive) | > 100 µM (inactive) | – | – | – | –
6 | COc1cc2ccnc([C@@H](OC(=O)c3ccccc3)c3ccc(OC)c(OC)c3OC)c2cc1OC | 30.3 µM (inactive) | 53.2 µM (inactive) | 33.9 µM (inactive) | 26.7 µM (inactive) | 36.9 µM (inactive) | 39.1 µM (inactive) | 41.6 µM (inactive) | 36.2 µM (inactive) | 33.6 µM (inactive) | 27.8 µM (inactive) | 54.3 µM (inactive) | 59.6 µM (inactive) | 53.1 µM (inactive) | 75.5 µM (inactive) | 56.4 µM (inactive) | – | – | – | –
7 | CCOC(=O)c1nc2cc(F)c(F)cc2nc1NCc1cc(OC)c(OC)c(OC)c1 | > 100 µM (inactive) | > 100 µM (inactive) | > 100 µM (inactive) | – | > 100 µM (inactive) | > 100 µM (inactive) | > 100 µM (inactive) | > 100 µM (inactive) | > 100 µM (inactive) | > 100 µM (inactive) | – | > 100 µM (inactive) | 42.5 µM (inactive) | > 100 µM (inactive) | 67.1 µM (inactive) | > 100 µM (inactive) | – | > 100 µM (inactive) | > 100 µM (inactive)
8 | CCOC(=O)CCC(NC(=O)OCc1ccccc1)C(=O)NC(CCC(=O)OCC)C(=O)NC(CCC(=O)OCC)C(=O)NNC(=O)OC(C)(C)C (stereo unspecified) | – | 49 µM (inactive) | > 100 µM (inactive) | > 100 µM (inactive) | > 10 µM (inactive) | – | > 100 µM (inactive) | > 100 µM (inactive) | > 100 µM (inactive) | – | > 100 µM (inactive) | > 100 µM (inactive) | > 100 µM (inactive) | > 100 µM (inactive) | > 100 µM (inactive) | – | > 100 µM (inactive) | > 100 µM (inactive) | > 100 µM (inactive)
9 | COc1cc2c(cc1OCCCOc1cc3c(cc1OC)C(=O)N1CCC[C@H]1CN3)N=C[C@@H]1CCCN1C2=O | 0.324 µM (active) | < 0.01 µM (active) | 0.124 µM (active) | 0.0482 µM (active) | 0.0893 µM (active) | 0.0371 µM (active) | 0.011 µM (active) | 0.115 µM (active) | 0.228 µM (active) | < 0.0127 µM (active) | – | 0.202 µM (active) | 0.0869 µM (active) | 0.163 µM (active) | 0.1 µM (active) | 0.357 µM (active) | 0.145 µM (active) | 0.279 µM (active) | –
10 | Cn1c(C2CCCc3c2c2ccccc2n3C)cc2ccccc21 (stereo unspecified) | 115 µM (inactive) | 140 µM (inactive) | 142 µM (inactive) | 74 µM (inactive) | 30.6 µM (inactive) | 130 µM (inactive) | 89.5 µM (inactive) | 20.5 µM (inactive) | 125 µM (inactive) | 40.4 µM (inactive) | – | 114 µM (inactive) | > 318 µM (inactive) | > 318 µM (inactive) | 35.8 µM (inactive) | – | – | – | –
11 | CCCCCCCCCC[C@@H](O)[C@@H]1CC[C@H]([C@H]2CC[C@@H]([C@@H](O)CCCCCCCCCC[C@H]3CC(CC(C)=O)C(=O)O3)O2)O1 (stereo partly specified) | 16.7 µM (inactive) | 3.07 µM (inactive) | 1.18 µM (inactive) | < 0.01 µM (active) | – | 10.2 µM (inactive) | 1.67 µM (inactive) | 3.15 µM (inactive) | 15.7 µM (inactive) | 0.0324 µM (active) | 1.01 µM (active) | 9.35 µM (inactive) | 10.4 µM (inactive) | 12.6 µM (inactive) | 10.7 µM (inactive) | – | – | – | –
12 | NS(=O)(=O)c1nc(S(=O)(=O)O)c2[nH]cnc2n1 | > 100 µM (inactive) | – | > 100 µM (inactive) | > 100 µM (inactive) | > 100 µM (inactive) | > 100 µM (inactive) | 29 µM (inactive) | > 100 µM (inactive) | > 100 µM (inactive) | > 100 µM (inactive) | > 100 µM (inactive) | > 100 µM (inactive) | > 100 µM (inactive) | > 100 µM (inactive) | > 100 µM (inactive) | – | > 100 µM (inactive) | > 100 µM (inactive) | > 100 µM (inactive)
13 | COc1ccc2c(c1)CCN1CCCc3ccc(OC)cc3C21 (stereo unspecified) | 41.8 µM (inactive) | 42.6 µM (inactive) | 31.3 µM (inactive) | 36 µM (inactive) | 60.4 µM (inactive) | 41.2 µM (inactive) | 37.1 µM (inactive) | – | – | 32.3 µM (inactive) | 31.6 µM (inactive) | > 100 µM (inactive) | > 100 µM (inactive) | > 100 µM (inactive) | 57.3 µM (inactive) | > 100 µM (inactive) | 49.8 µM (inactive) | 28.5 µM (inactive) | –
14 | CN(C)C(=S)S [SODIUM DIMETHYLCARBAMODITHIOATE] | 63.1 µM (inactive) | – | 25.5 µM (inactive) | 2.44 µM (inactive) | > 25.2 µM (inactive) | 34.4 µM (inactive) | 35.4 µM (inactive) | > 43.8 µM (inactive) | 4.68 µM (inactive) | 0.194 µM (active) | 17.5 µM (inactive) | > 64.4 µM (inactive) | > 100 µM (inactive) | > 100 µM (inactive) | > 100 µM (inactive) | > 95.7 µM (inactive) | 43.6 µM (inactive) | 3.37 µM (inactive) | –
15 | Cc1cc(OCC(=O)N/N=C/C(Br)=C/c2ccccc2)nc(SCC(=O)N/N=C/C(Br)=C/c2ccccc2)n1 | > 100 µM (inactive) | > 100 µM (inactive) | > 100 µM (inactive) | > 100 µM (inactive) | 39.9 µM (inactive) | > 100 µM (inactive) | – | – | 28.2 µM (inactive) | 26.6 µM (inactive) | 68.5 µM (inactive) | > 100 µM (inactive) | > 100 µM (inactive) | – | > 100 µM (inactive) | 58.3 µM (inactive) | – | 54.1 µM (inactive) | 49.4 µM (inactive)
16 | O=C(CP(=O)(c1ccccc1)c1ccccc1)c1cccc(C(=O)CP(=O)(c2ccccc2)c2ccccc2)c1 | > 100 µM (inactive) | > 100 µM (inactive) | 48.9 µM (inactive) | > 100 µM (inactive) | > 100 µM (inactive) | – | > 100 µM (inactive) | – | > 100 µM (inactive) | – | > 100 µM (inactive) | > 100 µM (inactive) | 29.2 µM (inactive) | 48.6 µM (inactive) | > 100 µM (inactive) | > 100 µM (inactive) | > 100 µM (inactive) | > 100 µM (inactive) | –
17 | N#Cc1c(N)[nH]c2ccc(Sc3ccccc3)cc12 | 0.216 µM (active) | 0.151 µM (active) | 0.111 µM (active) | < 0.0635 µM (active) | 0.113 µM (active) | 0.213 µM (active) | 0.143 µM (active) | – | 0.201 µM (active) | 0.112 µM (active) | 0.361 µM (active) | 0.141 µM (active) | 0.46 µM (active) | 1.8 µM (inactive) | 0.133 µM (active) | 0.721 µM (active) | 0.881 µM (active) | 0.275 µM (active) | –
